Five molecules from ChEMBL document CHEMBL4152370, “Identification of N-(5-(phenoxymethyl)-1,3,4-thiadiazol-2-yl)acetamide derivatives as novel protein tyrosine phosphatase epsilon inhibitors exhibiting anti-osteoclastic activity” (Bioorg Med Chem, 2018) can be followed below.

pIC50: −log10 of the molar value. Activity calls are given as the source filed them. No cut-off for these calls is given here.

Series [1] concerns the target T1, Receptor-type tyrosine-protein phosphatase epsilon (Homo sapiens, UniProt P23469). Briefly: Inhibition of cytosolic PTPepsilon in human monocyte-derived osteoclasts assessed as disruption of podosome organization at 17 uM after 4 days in presence of M-CSF/RANKL by DAPI staining-based immunofluorescence assay.
Series [2] deals with Monocyte. As to the kind of experiment: Inhibition of RANKL-induced human monocytes differentiation into osteoclasts after 4 days in presence of M-CSF by tartrate-resistant acid phosphatase staining based assay. It counts as functional, cell-based.
The subject of series [3] is Osteoclast. Briefly: Cytotoxicity against human monocyte-derived osteoclasts assessed as effect on cell viability at 2 to 17 uM by formazan-based spectrometric method.
For series [4], the system named is Osteoclast. Briefly: Effect on relative level of total c-Src/beta-actin in human monocyte-derived osteoclasts at 17 uM after 15 mins in presence of M-CSF/RANKL by Western blot method relative to control. It counts as cell-based. The conditions noted are these: 0.25 h. For orientation: In western blotting, separated proteins are transferred to a membrane and probed.

The target of series [5] is T1, Receptor-type tyrosine-protein phosphatase epsilon. Briefly: Inhibition of cytosolic PTPepsilon in human monocyte-derived osteoclasts assessed as relative level of Tyr530 phosphorylated c-Src/beta actin at 17 uM after 15 mins in presence of M-CSF/RANKL by Western blot method relative to control.
For series [6] the target is unchanged. Briefly: Inhibition of recombinant human cytosolic PTPepsilon expressed in Escherichia coli BL21 (DE3) using E527-P-Q-pY530-Q-P-G-E-N-L536 as substrate after 60 mins by malachite green assay.

T1 sequence (P23469 whole entry): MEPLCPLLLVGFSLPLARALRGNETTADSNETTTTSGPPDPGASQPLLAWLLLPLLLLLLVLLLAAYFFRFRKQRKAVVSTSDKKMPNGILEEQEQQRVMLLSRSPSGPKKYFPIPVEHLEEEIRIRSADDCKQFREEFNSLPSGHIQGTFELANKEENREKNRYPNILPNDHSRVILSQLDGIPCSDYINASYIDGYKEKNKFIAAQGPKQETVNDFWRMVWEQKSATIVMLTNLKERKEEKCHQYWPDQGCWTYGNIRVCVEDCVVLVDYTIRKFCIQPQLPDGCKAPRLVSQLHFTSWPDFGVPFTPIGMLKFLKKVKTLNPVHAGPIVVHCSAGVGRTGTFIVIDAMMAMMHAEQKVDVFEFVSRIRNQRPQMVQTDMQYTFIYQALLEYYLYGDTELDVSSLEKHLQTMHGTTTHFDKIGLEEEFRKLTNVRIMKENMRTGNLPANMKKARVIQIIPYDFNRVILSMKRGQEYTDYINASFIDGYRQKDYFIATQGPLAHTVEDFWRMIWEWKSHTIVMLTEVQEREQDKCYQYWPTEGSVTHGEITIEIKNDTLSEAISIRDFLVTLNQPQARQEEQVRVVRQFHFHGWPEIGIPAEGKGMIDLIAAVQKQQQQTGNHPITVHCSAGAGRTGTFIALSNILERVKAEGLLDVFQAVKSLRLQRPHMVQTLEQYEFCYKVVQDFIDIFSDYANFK

As a reminder, the pIC50 is −log10 of the IC50, conventionally taken in molar units. With `Cc1ccc(OCc2nnc(NC(=O)Nc3ccc(F)c(Cl)c3)s2)c(C)c1`, in series [1], the inhibition result is “Active”. In addition, the inhibition result in series [2] is “Dose-dependent effect”. Besides, in series [3], the Activity entry was “Non-Toxic”. The “fold change (FC)” value was determined as 1.29 in series [4] and 1.57 in series [5]. Also, in series [6], the pIC50 was 5.73.

As to `O=C(COc1ccc2c(c1)OCO2)Nc1nnc(COc2ccc(Cl)cc2)s1`, in series [6], the pIC50 is 5.70.

Turning to `COc1ccccc1OCC(=O)Nc1nnc(COc2ccccc2)s1`, the pIC50 in series [6] was 5.43.

Take `Cc1ccc(NC(=O)Nc2nnc(COc3ccc(C)cc3C)s2)cc1`: in series [1], the inhibition entry was “Active”. Besides, in series [2], the inhibition result was “Dose-dependent effect”. Moreover, the Activity entry in series [3] is listed as “Non-Toxic”. The “fold change (FC)” value in series [4] worked out at 1.12; in series [5], 1.87. Also, in series [6], the pIC50 was 5.61.

As for `CCC(C)c1ccc(OCc2nnc(NC(=O)Nc3ccccc3OC)s2)cc1` (stereo not given), the pIC50 in series [6] was 5.38.
